US10597388B2, “Pyridazinone herbicides” (FMC CORPORATION, priority 2014, dated 2020)

Experiments:
Assay in all cases: Test C greenhouse herbicide test, pre- and postemergence
Format in all cases: in vivo
[1] = test system: barnyardgrass (Echinochloa crus-galli)
Procedure, shortened: (§1)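 Seeds sown in loam–sand blend treated preemergence; plants in peat-based medium sprayed postemergence at 2–18 cm (1- to 4-leaf stage); chemicals in non-phytotoxic solvent with surfactant. Greenhouse 13–15 d, then visual rating versus controls on 0–100 scale (0 no effect, 100 complete control).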

[2] = test system: blackgrass (Alopecurus myosuroides)
Procedure, shortened: as §1

corn (Zea mays) = test system: corn (Zea mays)
Procedure, shortened: as §1

[3] = test system: crabgrass, large (large crabgrass, Digitaria sanguinalis)
Procedure, shortened: as §1

[4] = test system: foxtail, giant (giant foxtail, Setaria faberii)
Procedure, shortened: as §1

[5] = test system: galium (catchweed bedstraw, Galium aparine)
Procedure, shortened: as §1

[6] = test system: lambsquarters (Chenopodium album)
Procedure, shortened: as §1

[7] = test system: morningglory (Ipomoea coccinea)
Procedure, shortened: as §1

[8] = test system: nutsedge, yellow (yellow nutsedge, Cyperus esculentus)
Procedure, shortened: as §1

[9] = test system: oilseed rape (Brassica napus)
Procedure, shortened: as §1

[10] = test system: ragweed (common ragweed, Ambrosia elatior)
Procedure, shortened: as §1

[11] = test system: ryegrass, Italian (Italian ryegrass, Lolium multiflorum)
Procedure, shortened: as §1

soybean (Glycine max) = test system: soybean (Glycine max)
Procedure, shortened: as §1

[12] = test system: velvetleaf (Abutilon theophrasti)
Procedure, shortened: as §1

[13] = test system: waterhemp (common waterhemp, Amaranthus rudis)
Procedure, shortened: as §1

[14] = Postemergence, 31 g ai/ha, scale 0 to 100 (0 no effect, 100 complete control)
[15] = Postemergence, 62 g ai/ha, 0 to 100 scale (0 no effect, 100 complete control)
[16] = Postemergence, 250 g ai/ha, scale 0 to 100, 0 no effect, 100 complete control, 13 to 15 d
[17] = Preemergence, 31 g ai/ha, scale 0 to 100, 0 is no effect, 100 is complete control
[18] = Preemergence, 62 g ai/ha, scale 0 to 100, 0 is no effect, 100 is complete control
[19] = Preemergence, 125 g ai/ha, scale 0 to 100, 0 is no effect, 100 is complete control
[20] = Preemergence, 250 g ai/ha, scale 0 to 100, 0 no effect, 100 complete control
[21] = postemergence, 125 g ai/ha, scale 0 to 100, 0 no effect, 100 complete control

CCC(=O)Oc1c(C)nn(C)c(=O)c1-c1ccc(Br)c2ccccc12 [Compound 134]
Plant response rating, Barnyardgrass [1, 14]: 10
Barnyardgrass plant response rating [1, 15]: 20
Plant response rating, Barnyardgrass ([1]; Postemergence, 125 g ai/ha, scale 0 to 100, 0 is no effect, 100 is complete control): 40
Plant response rating, Barnyardgrass [1, 16]: 55
Plant response rating, Barnyardgrass [1, 17]: 5
Plant response rating, Barnyardgrass [1, 18]: 40
Plant response rating, Barnyardgrass [1, 19]: 70
Barnyardgrass plant response rating [1, 20]: 90
Plant response rating, Blackgrass [2, 14]: 50
Blackgrass plant response rating [2, 15]: 45
Plant response rating, Blackgrass [2, 16]: 98
Plant response rating, Blackgrass [2, 17]: 20
Plant response rating, Blackgrass [2, 18]: 40
Plant response rating, Blackgrass [2, 19]: 40
Blackgrass plant response rating [2, 20]: 75
Blackgrass plant response rating [2, 21]: 50
Plant response rating, Corn (corn (Zea mays); [14]): 5
Corn plant response rating (corn (Zea mays); [15]): 10
Plant response rating, Corn (corn (Zea mays); [16]): 15
Plant response rating, Corn (corn (Zea mays); [17]): 0
Plant response rating, Corn (corn (Zea mays); [18]): 0
Plant response rating, Corn (corn (Zea mays); [19]): 10
Corn plant response rating (corn (Zea mays); [20]): 5
Corn plant response rating (corn (Zea mays); [21]): 10
Plant response rating, Crabgrass, Large [3, 14]: 5
Crabgrass, Large plant response rating [3, 15]: 10
Plant response rating, Crabgrass, Large [3, 16]: 40
Plant response rating, Crabgrass, Large [3, 17]: 5
Plant response rating, Crabgrass, Large [3, 18]: 30
Plant response rating, Crabgrass, Large [3, 19]: 40
Crabgrass, Large plant response rating [3, 20]: 60
Crabgrass, Large plant response rating [3, 21]: 15
Plant response rating, Foxtail, Giant [4, 14]: 15
Foxtail, Giant plant response rating [4, 15]: 25
Plant response rating, Foxtail, Giant [4, 16]: 45
Plant response rating, Foxtail, Giant [4, 17]: 25
Plant response rating, Foxtail, Giant [4, 18]: 75
Plant response rating, Foxtail, Giant [4, 19]: 70
Foxtail, Giant plant response rating [4, 20]: 80
Foxtail, Giant plant response rating [4, 21]: 35
Plant response rating, Galium [5, 14]: 95
Galium plant response rating [5, 15]: 95
Plant response rating, Galium [5, 16]: 100
Plant response rating, Galium [5, 17]: 100
Plant response rating, Galium [5, 18]: 98
Plant response rating, Galium [5, 19]: 98
Galium plant response rating [5, 20]: 98
Galium plant response rating [5, 21]: 100
Plant response rating, Lambsquarters [6, 14]: 100
Lambsquarters plant response rating [6, 15]: 98
Plant response rating, Lambsquarters [6, 16]: 100
Plant response rating, Lambsquarters [6, 17]: 75
Plant response rating, Lambsquarters [6, 18]: 90
Plant response rating, Lambsquarters [6, 19]: 100
Lambsquarters plant response rating [6, 20]: 100
Lambsquarters plant response rating [6, 21]: 100
Plant response rating, Morningglory [7, 14]: 98
Morningglory plant response rating [7, 15]: 100
Plant response rating, Morningglory [7, 16]: 100
Plant response rating, Morningglory [7, 17]: 75
Plant response rating, Morningglory [7, 18]: 90
Plant response rating, Morningglory [7, 19]: 95
Morningglory plant response rating [7, 20]: 100
Morningglory plant response rating [7, 21]: 100
Plant response rating, Nutsedge, Yellow [8, 14]: 75
Nutsedge, Yellow plant response rating [8, 15]: 80
Plant response rating, Nutsedge, Yellow [8, 16]: 90
Plant response rating, Nutsedge, Yellow [8, 17]: 30
Plant response rating, Nutsedge, Yellow [8, 18]: 45
Plant response rating, Nutsedge, Yellow [8, 19]: 95
Nutsedge, Yellow plant response rating [8, 20]: 90
Nutsedge, Yellow plant response rating [8, 21]: 95
Plant response rating, Oilseed Rape [9, 14]: 95
Oilseed Rape plant response rating [9, 15]: 100
Plant response rating, Oilseed Rape [9, 16]: 100
Plant response rating, Oilseed Rape [9, 17]: 55
Plant response rating, Oilseed Rape [9, 18]: 90
Plant response rating, Oilseed Rape [9, 19]: 90
Oilseed Rape plant response rating [9, 20]: 98
Oilseed Rape plant response rating [9, 21]: 100
Plant response rating, Ragweed [10, 14]: 0
Ragweed plant response rating [10, 15]: 5
Plant response rating, Ragweed [10, 16]: 30
Plant response rating, Ragweed [10, 17]: 70
Plant response rating, Ragweed [10, 18]: 95
Plant response rating, Ragweed [10, 19]: 95
Ragweed plant response rating [10, 20]: 98
Ragweed plant response rating [10, 21]: 5
Plant response rating, Ryegrass, Italian [11, 14]: 5
Ryegrass, Italian plant response rating [11, 15]: 15
Plant response rating, Ryegrass, Italian [11, 16]: 40
Plant response rating, Ryegrass, Italian [11, 17]: 98
Plant response rating, Ryegrass, Italian [11, 18]: 100
Plant response rating, Ryegrass, Italian [11, 19]: 100
Ryegrass, Italian plant response rating [11, 20]: 100
Ryegrass, Italian plant response rating [11, 21]: 20
Plant response rating, Soybean (soybean (Glycine max); [14]): 75
Soybean plant response rating (soybean (Glycine max); [15]): 70
Plant response rating, Soybean (soybean (Glycine max); [16]): 85
Plant response rating, Soybean (soybean (Glycine max); [17]): 40
Plant response rating, Soybean (soybean (Glycine max); [18]): 45
Plant response rating, Soybean (soybean (Glycine max); [19]): 65
Soybean plant response rating (soybean (Glycine max); [20]): 75
Soybean plant response rating (soybean (Glycine max); [21]): 70
Plant response rating, Velvetleaf [12, 14]: 80
Velvetleaf plant response rating [12, 15]: 90
Plant response rating, Velvetleaf [12, 16]: 100
Plant response rating, Velvetleaf [12, 17]: 75
Plant response rating, Velvetleaf [12, 18]: 90
Plant response rating, Velvetleaf [12, 19]: 90
Velvetleaf plant response rating [12, 20]: 100
Velvetleaf plant response rating [12, 21]: 100
Plant response rating, Waterhemp [13, 14]: 98
Waterhemp plant response rating [13, 15]: 100
Plant response rating, Waterhemp [13, 16]: 100
Plant response rating, Waterhemp [13, 17]: 90
Plant response rating, Waterhemp [13, 18]: 98
Plant response rating, Waterhemp [13, 19]: 98
Waterhemp plant response rating [13, 20]: 100
Waterhemp plant response rating [13, 21]: 100
